Experimental data: patent publication US9731001B2, “Three-dimensional cavities of dendritic cell immunoreceptor (DCIR), compounds binding thereto and therapeutic applications related to inhibition of human immunodeficiency virus type-1 (HIV-1)” (priority 2011, dated 2017)

Tests used:
[1] = system: HIV-1 (NL4-3); test: HIV-1 binding/entry on H2O2-treated (apoptotic) CD4TL (p24); format: cell-based; conditions: CD4TL treated with 30 μM H2O2 16 h; NL4-3 1 h; FIG. 8 panel A
Procedure: FIGS. 8A and 8B are bar graphs showing the impact of DCIR inhibitors on HIV-1 transmission by apoptotic CD4^+ T cells. Target CD4^+ T cells (1×10^6) were treated for 16 h with H2O2 (30 μM) to induce the surface expression of DCIR. Cells were treated with site A inhibitors (1 and 4) or site B inhibitors (1 and 2) or vehicle (DMSO). Panel A: Cells were next exposed to NL4-3 (100 ng/ml of p24) for 1 h at 37° C., extensively washed to remove unadsorbed virions before assessing p24 content. Panel B: Cells were first incubated with NL4-3 (100 ng/ml of p24) for 2 h at 37° C., washed extensively to remove unadsorbed virions and cultured in complete RPMI-1640 supplemented with rhIL-2 for the time indicated. Cell-free supernatants were then collected and assayed for p24 content. Data shown correspond to the means±sem of 3 independent experiments performed in triplicate for panel A and the means±SEM of 2 independent experiments for panel B. The asterisks denotes statistically significant data (*, P<0.05; **, P<0.01; ***, P<0.001).
Apoptosis was induced in CD4TL activated with 30 μM H2O2 for 16 h before performing the following experimental procedures. To assay binding/entry, cells (1×10^6) were incubated for 60 min at 37° C. with NL4-3 (100 ng of p24). After three extensive washes with PBS to remove un-adsorbed virus, HIV-1 binding was quantified by estimating p24 content. […]

[2] = system: Th17 CD4 T cells; test: Apoptosis (Z-Vad-FMK FITC), Th17 CD4 T cells; format: cell-based, human; conditions: 10 uM, 24 hrs
Procedure: (§1) FIGS. 14A-14F are a bar graphs showing the impact of the DCIR-EPS inhibitor (Cpd B2) on viability and apoptosis of TH17 polarized CD4 T cells or PHA-L/activated CD4T cells according to Example 8. Polarized CD4 TH17 cells (left panels) or PHA-L/IL-2 activated CD4 T cells (right panels) were either untreated or treated with 10 μM of DCIR-EPS inhibitor for 10 min at 37° C. Cells were then contacted with NL4-3BalEnv for 2 hrs and washed three times with PBS to remove non-adsorbed virus. Cells were then incubated for 10 days and toxicity was measured using the MTT assay (upper panels). In parallel, cells were incubated for 24 hrs and stained with Z-Vad-FMK FITC Abs to measure apoptosis) (middle panels) or with DCIR Abs lower panels).
(§2) After observing the inhibition of p24 content in Th17 cells by the DCIR inhibitor (Cpd B2), the impact of the DCIR inhibitor on cell viability and apoptosis was determined (FIG. 14). Polarized CD4 Th17 cells (FIG. 14A, 14C, 14E) or PHA-L/IL-2 CD4T cells (FIGS. 14B, 14D, 14F) were either untreated (DMSO) or treated with 10 uM of DCIR inhibitor for 10 minutes at 37° C. and then incubated with NL4-3BalEnv or mock virus for 2 hours. […] DCIR expression on Th17 CD4 T cells and PHA-L/IL-2 activated CD4 T cells was measured with or without treatment with the DCIR inhibitor (FIGS. 14E, 14F). […]

[3] = system: Polarized CD4 Th17 cells; test: Toxicity by MTT assay, polarized CD4 Th17 cells; format: cell-based, human; conditions: Th17 CD4T cells; 10 uM; 10 days
Procedure: as §1, §2

[4] = system: PHA-L/IL-2 activated CD4 T cells; test: Toxicity by MTT assay, PHA-L/IL-2 activated CD4 T cells; format: cell-based, human; conditions: 10 uM, 10 days
Procedure: as §1, §2

[5] = system: DCIR; test: DCIR expression on Th17 CD4 T cells; format: cell-based, human; conditions: 10 uM
Procedure: as §1, §2

[6] = system: HIV-1 (NL4-3BalEnv); test: HIV replication in PHA/IL-2 activated CD4T cells (p24); format: cell-based; conditions: 10 μM
Procedure: (§3) FIGS. 13A and 13B are a bar graphs showing impact of the DCIR-EPS inhibitor (Cpd B2) on HIV replication by activated Th17 polarized CD4T cells, according to Example 8. Polarized CD4 Th17 cells (FIG. 13A) and PHA/IL-2 activated CD4T cells (FIG. 13B) were either untreated or treated with 10 μM of DCIR-EPS inhibitor (Cpd B2) for 10 min at 37° C. Cells were then exposed to NL4-3BalEnv for 2 hrs. After three washes with PBS to remove non-adsorbed virus, cells were cultured during 10 days. Viral replication was quantified by measuring the HIV-p24 content in culture supernatants. Data represent means±SD of triplicate samples from the same patient. Asterisks denote statistically significant differences (**, P<0.01), (*, P<0.05).
(§4) It was assessed whether the DCIR inhibitor (Compound B2) could reduce viral production. Polarized Th17 CD4T cells (FIG. 13A) and PHA/IL-2 activated CD4T cells (FIG. 13B) were pretreated or not with DCIR inhibitor (Cpd B2) before being put into contact with NL4-3BalEnv. Cells were washed and incubated for 10 days and then p24 content was measured. […] Prevention of Th17 infection could be contributed to maintain an adequate intestinal homeostasis.

[7] = system: DCIR; test: DCIR expression on PHA-L/IL-2 activated CD4 T cells; format: cell-based, human; conditions: 10 uM
Procedure: as §1, §2

[8] = system: PHA-L/IL-2 CD4 T cells; test: Apoptosis (Z-Vad-FMK FITC), PHA-L/IL-2 CD4 T cells; format: cell-based, human; conditions: 10 uM, 24 hrs
Procedure: as §1, §2

[9] = system: HIV-1 (NL4-3BalEnv); test: HIV replication in polarized Th17 CD4T cells (p24); format: cell-based; conditions: 10 μM, 3, 7 and 10 days of incubation
Procedure: as §3, §4

Row | SMILES | decrease of HIV-1 attachment to H2O2 treated cells [1] | apoptosis [2] | toxic effect (MTT assay) [3] | toxic effect (MTT assay) [4] | DCIR expression [5] | p24 content ([6]; after 3 and 7 days) | p24 content ([6]; after 10 days) | DCIR expression [7] | apoptosis [8] | p24 content [9]
1 | O=C(/C=C/C=C/c1ccccc1)c1ccccc1 [Compound A1, 1,5-diphenyl-2,4-pentadien-1-one] | about 50% |  |  |  |  |  |  |  |  | 
2 | O=C(c1ccccc1)c1cc2ccccc2o1 [Compound B1, 1-benzofuran-2-yl(phenyl)methanone] | ~40% |  |  |  |  |  |  |  |  | 
3 | Cc1ccc(/N=[N+](\[O-])c2ccc(C)cc2)cc1 [Compound B2, 1-methyl-4-[(4-methylphenyl)-NNO-azoxy]benzene] |  | did not have any impact on apoptosis | did not have a toxic effect | did not have a toxic effect | no difference in DCIR expression | non-significant trend for reduction | significant reduction | marked reduction in DCIR expression | underwent less apoptosis | significantly reduced p24 content
